From US12642769B2, “Delivery carrier into cell” (Kabusikikaisya ITO, priority 2019, dated 2026)

Key:
Type in all cases: cell-based
[1] = system: LabCyte EPI-MODEL normal skin epidermis model; experiment: in vitro skin irritation test OECD 439, photoresponsive carriers; details: the higher the score, the higher the safety; Water (negative control) 100 points
Method: In vitro skin irritation tests were performed on cultured cell according to OECD guidelines. The guidelines used were OECD GUIDELINES FOR THE TESTING OF CHEMICALS, 439. (2015). LabCyte EPI-MODEL was used as a normal skin epidermis model, and a skin irritation test was performed and scored. As a result (the higher the score, the higher the safety), the score is 5% SLS (positive control) 3 points, Water (negative control) 100 points, A-1 of the present invention is 111 points, B-1 was 98 points, C-1 was 87 points, and D-1 was 79 points. The viable cell rate of all the preparations was 50% or more, and skin irritation was denied.

[2] = system: LabCyte EPI-MODEL normal skin epidermis model; experiment: in vitro skin irritation test OECD TG-439, temperature-responsive carriers; details: the lower the score, the higher the toxicity; Water (negative control) 100 points
Method: In Vitro Skin Irritation Test of Cultured Cell According to OECD Guidelines. OECD
Guidelines for the Testing of Chemicals, 439. (2015)
LabCyte EPI-MODEL was used as a normal skin epidermis model, and a skin irritation test was performed and scored. As a result (the lower the score, the higher the toxicity), the score is 3 points for 5% SLS (positive control), 100 points for Water (negative control), 125 points for A-1 of the present invention, and B-1 was 101, C-1 was 89, and D-1 was 83, and the viable cell rate was 50% or higher in all the formulations. All skin irritation was denied.

[3] = system: LabCyte EPI-MODEL normal dermal epidermis model; experiment: in vitro skin irritation test OECD 439, pH-responsive carriers; details: the lower the score, the higher the toxicity; Water (negative control) 100 points
Method: In vitro skin irritation tests were conducted using cultured cell according to OECD guidelines. We used OECD GUIDELINES FOR THE TESTING OF CHEMICALS, 439. (2015) for guidelines. As a result of the skin irritation test using LabCyte EPI-MODEL as a normal dermal epidermis model (the lower the score, the higher the toxicity and the lower the safety), the scores were 3 points for 5% SLS (positive control) and 100 points for Water (negative control), 134 points for A-2, 109 points for B-2,95 points for C-2, and 91 points for D-2, and the percentage of viable cell was more than 50% for all the preparations and the skin irritation was denied.

Measured: skin irritation test score

CCCCCCCCCCCCOS(=O)(=O)[O-].[Na+] [SLS]
3 points: [1] | [2] | [3]
